Experimental findings from ChEMBL document CHEMBL5512664, “Emerging and Re-emerging Warheads for Targeted Covalent Inhibitors: An Update” (J Med Chem, 2024) are described below.

The nature of data set [1]: Stability of the compound in pH 7.5 PBS assessed as hydrolysis by measuring half life at 500 uM by LC-MS analysis. Format: physicochemical. The settings on record: PBS pH 7.5, pH 7.5.
Data set [2] is described as follows: GSH reactivity in PBS buffer at pH 7.5 assessed as half life at 500 uM by LC-MS analysis. Format: ADME.
Data set [3] deals with Eukaryotic translation initiation factor 4E (Homo sapiens) (UniProt P06730). In words: Inhibition of eIF4E (unknown origin) assessed as reaction rate Kinact/Ki ratio.
Chain of Eukaryotic translation initiation factor 4E (Homo sapiens) (P06730 whole entry): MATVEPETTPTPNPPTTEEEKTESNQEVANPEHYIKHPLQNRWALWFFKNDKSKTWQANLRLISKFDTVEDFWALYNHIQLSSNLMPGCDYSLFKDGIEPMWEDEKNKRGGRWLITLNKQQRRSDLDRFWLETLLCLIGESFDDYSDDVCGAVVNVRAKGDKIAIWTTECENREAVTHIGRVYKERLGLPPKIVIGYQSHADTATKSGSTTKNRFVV
The target is the same in data set [4]. In words: Inhibition of eIF4E (unknown origin) assessed as inactivation rate constant (Kinact).
The target of data set [5] is T1, Replicase polyprotein 1ab (Severe acute respiratory syndrome coronavirus 2, UniProt P0DTD1). In words: Inhibition of SARS-CoV-2 Main protease (Mpro) by FRET assay.
A short description of data set [6]: Cytotoxicity against African green monkey Vero E6 cells. Format: toxicity, cell-based, Vero C1008. Conditions: chlorocebus sabaeus.
Data set [7] has as its target T1, Replicase polyprotein 1ab. In words: Inhibition of SARS-CoV-2 cysteine protease main protease.
Data set [8] in a line: Toxicity in ip dosed mature male rabbit assessed as death. It counts as organism-based, Oryctolagus cuniculus. Conditions: in vivo.
In a further data set the target is Pyruvate kinase PKLR (Homo sapiens, UniProt P30613). Description: Allosteric activation at human liver pyruvate kinase.
Chain of Pyruvate kinase PKLR (P30613 whole entry): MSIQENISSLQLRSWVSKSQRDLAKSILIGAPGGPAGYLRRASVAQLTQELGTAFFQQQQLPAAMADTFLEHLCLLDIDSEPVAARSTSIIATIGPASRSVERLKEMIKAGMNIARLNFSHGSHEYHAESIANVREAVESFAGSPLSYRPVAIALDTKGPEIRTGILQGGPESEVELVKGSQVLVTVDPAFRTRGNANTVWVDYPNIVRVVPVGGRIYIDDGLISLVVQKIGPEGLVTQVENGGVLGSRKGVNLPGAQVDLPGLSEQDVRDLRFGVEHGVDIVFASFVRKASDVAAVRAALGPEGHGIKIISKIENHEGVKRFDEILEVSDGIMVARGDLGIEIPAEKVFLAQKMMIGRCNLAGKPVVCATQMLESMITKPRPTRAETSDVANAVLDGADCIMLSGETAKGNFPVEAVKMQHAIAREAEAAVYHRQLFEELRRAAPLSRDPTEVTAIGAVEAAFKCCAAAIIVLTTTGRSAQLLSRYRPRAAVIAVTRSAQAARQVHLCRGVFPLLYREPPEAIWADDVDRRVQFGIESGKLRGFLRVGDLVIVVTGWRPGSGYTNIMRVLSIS
Data set [9] deals with T2, Peptidyl-prolyl cis-trans isomerase E (Homo sapiens, UniProt Q9UNP9). In words: Inhibition of CypE (unknown origin) assessed as apparent inhibition constant incubated for 24 hrs by Competition anisotropy binding assay. The settings on record: read-out: Ki(app).
T2 sequence (Q9UNP9 whole entry): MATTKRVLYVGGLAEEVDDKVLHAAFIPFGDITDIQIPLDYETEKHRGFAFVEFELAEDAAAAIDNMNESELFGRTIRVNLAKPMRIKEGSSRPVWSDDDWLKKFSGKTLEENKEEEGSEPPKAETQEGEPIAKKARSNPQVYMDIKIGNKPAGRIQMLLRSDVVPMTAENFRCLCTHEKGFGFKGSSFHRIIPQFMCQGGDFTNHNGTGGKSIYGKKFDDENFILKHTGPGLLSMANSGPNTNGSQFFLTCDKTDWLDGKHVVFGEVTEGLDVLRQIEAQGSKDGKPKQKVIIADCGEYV
Data set [10] addresses T2, Peptidyl-prolyl cis-trans isomerase E. In words: Inhibition of CypE (unknown origin) expressed in Escherichia coli BL21(DE3) by FLIPR based Chymotrypsin coupled prolyl-isomerase assay.
The target in data set [11] is Signal peptidase I (Escherichia coli K-12) (UniProt P00803). Description: Irreversible inhibition of Escherichia coli type I signal peptidase LepB assessed as inactivation rate constant (Kinact).
Chain of Signal peptidase I (Escherichia coli K-12) (P00803 whole entry): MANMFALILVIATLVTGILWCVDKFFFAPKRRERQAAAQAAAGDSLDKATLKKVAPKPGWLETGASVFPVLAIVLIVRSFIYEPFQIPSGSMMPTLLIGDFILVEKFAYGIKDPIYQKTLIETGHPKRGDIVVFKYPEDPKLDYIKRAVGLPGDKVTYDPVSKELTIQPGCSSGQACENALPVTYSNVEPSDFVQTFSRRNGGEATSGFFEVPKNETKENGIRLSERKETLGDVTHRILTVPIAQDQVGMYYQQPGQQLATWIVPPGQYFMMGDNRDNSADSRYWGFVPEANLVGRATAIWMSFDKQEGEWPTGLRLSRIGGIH
The target in a further data set is Signal peptidase I (Escherichia coli K-12, UniProt P00803). Description: Binding affinity to Escherichia coli type I signal peptidase LepB assessed as inhibition constant.
Chain of Signal peptidase I (P00803 whole entry): as above
The target of data set [12] is Signal peptidase I (Escherichia coli K-12) (UniProt P00803). Description: Inhibition of Escherichia coli type I signal peptidase LepB assessed as reaction rate Kinact/Ki ratio.
The target in data set [13] is Induced myeloid leukemia cell differentiation protein Mcl-1 (Homo sapiens, UniProt Q07820). In words: Irreversible inhibition of MCL-1 (unknown origin) measured after 8 hrs.
Chain of Induced myeloid leukemia cell differentiation protein Mcl-1 (Q07820 whole entry): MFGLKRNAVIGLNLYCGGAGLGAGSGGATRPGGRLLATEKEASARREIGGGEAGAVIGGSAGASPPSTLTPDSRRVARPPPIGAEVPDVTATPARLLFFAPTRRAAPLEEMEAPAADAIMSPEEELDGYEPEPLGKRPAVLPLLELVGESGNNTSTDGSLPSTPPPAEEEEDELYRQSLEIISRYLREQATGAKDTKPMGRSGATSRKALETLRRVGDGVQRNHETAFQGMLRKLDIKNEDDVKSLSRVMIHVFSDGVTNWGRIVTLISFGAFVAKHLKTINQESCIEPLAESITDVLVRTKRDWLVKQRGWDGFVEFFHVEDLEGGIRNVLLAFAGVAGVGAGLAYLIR
Data set [14] can be described thus: Stability of the compound in human plasma assessed as half life. Format: ADME, cell-free.
Data set [15] is described as follows: Inhibition of staphylococcus aureus Sortase A assessed as fluorescence polarization using reporter peptide W7-F incubated for 30 mins by competition assay.
Data set [16] deals with T3, Tyrosine-protein kinase BTK (Homo sapiens, UniProt Q06187).
T3 sequence (Q06187 whole entry): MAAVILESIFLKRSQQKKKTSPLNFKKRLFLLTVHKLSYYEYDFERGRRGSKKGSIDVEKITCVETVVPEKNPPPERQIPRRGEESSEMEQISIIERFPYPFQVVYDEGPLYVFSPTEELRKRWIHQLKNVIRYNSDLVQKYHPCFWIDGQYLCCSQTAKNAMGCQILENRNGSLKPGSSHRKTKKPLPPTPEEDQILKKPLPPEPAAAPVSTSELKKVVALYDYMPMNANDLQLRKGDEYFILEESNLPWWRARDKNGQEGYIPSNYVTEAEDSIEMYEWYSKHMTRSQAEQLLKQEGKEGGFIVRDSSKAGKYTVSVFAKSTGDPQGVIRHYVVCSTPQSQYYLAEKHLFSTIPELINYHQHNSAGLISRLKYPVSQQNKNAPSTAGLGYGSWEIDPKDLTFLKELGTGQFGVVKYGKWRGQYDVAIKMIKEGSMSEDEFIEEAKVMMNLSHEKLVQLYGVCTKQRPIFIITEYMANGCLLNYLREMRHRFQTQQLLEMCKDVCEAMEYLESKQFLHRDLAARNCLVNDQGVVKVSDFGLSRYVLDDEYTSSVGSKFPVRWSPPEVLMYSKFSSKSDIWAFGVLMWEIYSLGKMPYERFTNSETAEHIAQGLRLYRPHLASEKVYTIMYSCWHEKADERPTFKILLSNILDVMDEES
Description: Binding affinity to BTK (unknown origin) assessed as inactivation rate constant (Kinact)
The nature of data set [17]: Thiol reactivity of compound assessed as (Kinact/Ki) rate constant ratio. Format: ADME.
The target in data set [18] is T3, Tyrosine-protein kinase BTK. Description: Binding affinity to BTK (unknown origin) assessed as inhibition constant.
Data set [19] can be described thus: Metabolic stability in human hepatocytes assessed as half life. Format: ADME, cell-based, Hepatocyte.
A short description of data set [20]: Metabolic stability in human liver microsomes assessed as half life. It counts as ADME, Microsome. A general note: Microsomes from liver hold many membrane-bound enzymes, among them those of drug oxidation.
The nature of data set [21]: Reactivity of SuTEx assessed as aryl-LG modifications by measuring half life by HLPC analysis. It counts as physicochemical.
Data set [22] has as its target T4, Chromobox protein homolog 8 (Homo sapiens) (UniProt Q9HC52).
T4 sequence (whole entry): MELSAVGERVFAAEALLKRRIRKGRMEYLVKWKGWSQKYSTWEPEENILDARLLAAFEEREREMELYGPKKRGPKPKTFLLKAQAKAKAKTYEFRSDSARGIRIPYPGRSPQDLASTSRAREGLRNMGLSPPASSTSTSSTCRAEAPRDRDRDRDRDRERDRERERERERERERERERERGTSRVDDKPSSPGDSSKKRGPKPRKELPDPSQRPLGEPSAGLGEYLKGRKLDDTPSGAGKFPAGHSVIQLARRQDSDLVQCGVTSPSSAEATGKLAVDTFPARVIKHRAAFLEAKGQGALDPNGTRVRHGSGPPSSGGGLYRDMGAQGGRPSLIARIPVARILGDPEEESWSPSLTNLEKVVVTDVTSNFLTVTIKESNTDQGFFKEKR
In words: Binding affinity to CBX8 (unknown origin) assessed as rate constant of covalent modification (Kinact).

In data set [23] the target is Bromodomain-containing protein 4 (Homo sapiens) (UniProt O60885). Description: Binding affinity to his-tagged recombinant BRD4 BD1 (unknown origin) assessed as increase in thermal stability by measuring change in melting temperature after 4 hrs by cellular thermal shift assay.

Take `CNc1nc2ccc(N(Cc3ccnc(Cl)c3)S(=O)(=O)c3cccc(S(=O)(=O)F)c3)cc2c(=O)[nH]1`: the results for the half-life at 500 µM in [1] and in data set [2] were 30 min and 2.7 min, respectively. For the same compound, the Ratio in [3] was 5.5 10^3/M/s. For the same compound, the Kinact in [4] was 2 10^-2/s.
Regarding `O=C[C@H](CC1CCNC1=O)NC(=O)[C@H](Cc1cccc(F)c1)NC(=O)c1cc2ccccc2[nH]1` (stereo not given in full), 40 nM corresponded to half-maximal inhibition in data set [5] (IC50).
`C[C@@H](NC(=O)[C@H](c1cccnc1)N(C(=O)C(Br)(Br)Br)c1ccc(-c2ccccc2)cc1)c1ccccc1` registered a half-maximal cytotoxic concentration (CC50) in data set [6] of 5480 nM. Also, the half-maximal inhibitory concentration (IC50) in data set [7] was 80 nM.
For `O=C(NCCCCCCCCNC(=O)C(Cl)Cl)C(Cl)Cl`, the LD50 in [8] is 10000 mg/kg.
For `COC(=O)c1ccccc1SC1=NS(=O)(=O)c2ccccc21`, at Pyruvate kinase PKLR, the midpoint of the response, the EC50, lay at 290 nM.
Turning to `NCCOCCNC(=O)[C@@H]1CCNC(=O)/C=C/C(=O)N2CCC[C@](Cc3ccccc3)(C2)C(=O)N[C@@H](Cc2ccc(-c3ccccc3)cc2)C(=O)NCc2ccccc2CC(=O)N1`, in [9], the Ki came to 72 nM. In data set [10], this compound came in with a 50% inhibitory concentration (IC50) of 13 nM.
As for `Cc1nc(-c2ccc(C(C)(C)C)cc2)ncc1C(=O)N[C@@H](CCN)C(=O)N(C)[C@@H]1C(=O)N[C@@H](C)C(=O)N[C@H](C(=O)NCC#N)Cc2ccc(OCCN)c(c2)-c2cc1ccc2OCCN`, in data set [11], the Kinact is 7 10^-4/s. Further, the Ki on Signal peptidase I came out at 0.44 nM. The Ratio in [12] is 1.6 10^6/M/s.
Consider `C#Cc1ccc(OCc2nn(C)c(C)c2-c2cccc3c(CCCOc4cccc5ccccc45)c(C(=O)O)[nH]c23)cc1C=O`, for which the 50% inhibitory concentration (IC50) in data set [13] came to 26.8 nM.
Turning to `O=C1CCC(N2Cc3ccc(S(=O)(=O)n4cncn4)cc3C2=O)C(=O)N1` (stereo not given), the half-life in data set [14] is below 1 min.
For the compound `O=Cc1ccccc1NCc1ccccc1B(O)O`, the IC50 in [15] worked out at 1300 nM.
`CC(C)(C)OC(=O)/C=C/C(=O)N1CCC[C@@H](n2nc(-c3ccc(Oc4ccccc4)cc3)c3c(N)ncnc32)C1`: the Kinact in data set [16] is 7.62 10^-3/s. Further, the kinact/KI in data set [17] was 35000 M⁻¹ s⁻¹. Further, the Ki in [18] stood at 221 nM.
Regarding `O=C1CCC(N2Cc3ccc(OS(=O)(=O)F)cc3C2=O)C(=O)N1` (stereo not given), the half-life in data set [19] was above 217 min; in data set [20] it was above 145 min.
On to `O=S(=O)(c1ccc(F)cc1)n1cnc(-c2ccc(C(F)(F)F)cc2)n1`, for which the half-life in [21] stood at 3.2 min. Also, in [22], the K was 2.9 10^-3/M/s.
With `Cc1noc(C)c1-c1ccc(=O)n(Cc2ccc(C3CO3)cc2)c1` (stereo not given), the ΔTm in data set [23] came to 22 °C.

As a reminder, the half-life is how long it takes for the measured level to halve. The IC50 is the concentration needed to halve the response being measured. One may read the CC50 as the concentration that lowers cell viability or growth by half. As usually defined, the LD50 is the dose expected to kill half of the subjects tested. For orientation: EC50 means the midpoint of the concentration-response curve. One may read the kinact/KI as the second-order rate constant of inactivation. The term ΔTm denotes the change in melting temperature against a reference sample.
